Patent US9518041B2, “(+)-5-(3,4-difluorophenyl)-5-[(3-methyl-2-oxopyridin-1(2H)-yl)methyl]imidazolidine-2,4-dione and drug containing same” (KAKEN PHARMACEUTICAL CO., LTD., priority 2013, dated 2016)
Values after ≈ are worked out from the molar mass of the structure shown. Read-outs that look alike come from different tables or passages of the source.

How the values were obtained:
[1] = Solubility test in the 2nd fluid for the disintegration test of the Japanese Pharmacopoeia; assay type: physicochemical; conditions: pH 6.8, aqueous buffer, thermodynamic from solid; pH6.8, shaken for 2 hours
Experimental: Test substances (10.0 mg) were correctly weighed, and methanol was added to adjust to 10 mL. The solution was diluted by 10 times to prepare a solution of […].
In a centrifuge tube 5.0 mg of the test substance was weighed, added with 5.0 mL of the 2nd fluid for the disintegration test of the Japanese pharmacopoeia, supersonified for 3 minutes, and shaken for 2 hours thereafter. This solution was filitered with a membrane filter (0.2 μm), 500 μL the filtrate was measured, 500 μL of acetonitrile was added, and fully stirred to obtain the sample solution.
To 250 mL of 0.2 mol/L potassium dihydrogenphosphate aqueous solution, 118 mL of 0.2 mol/L sodium hydroxide aqueous solution and water was added to adjust to 1000 mL.
Using a high performance liquid chromatography, each of the sample solution for a calibration curve and sample solution for solubility measurement is measured twice to calculate an average area for each.
Based on the average area obtained in the above mentioned method, using an equation below to calculate a solubility. Solubility in the 2nd fluid for the disintegration test of the Japanese pharmacopoeia(μg/mL)=((P×2)/S)×100
S: Average area on the sample solution for a calibration curve
P: Average area on the sample solution for solubility measurement

[2] = Solubility test in organic solvents (propylene glycol, butylene glycol); assay type: physicochemical; conditions: organic solvent or mixture, thermodynamic from solid, visual observation after 24 hours at room temperature
Experimental: Under room temperature conditions, in a 0.5 mL polypropylene tube, (+)-5-(3,4-difluorophenyl)-5-[(3-methyl-2-oxopyridin-1(2H)-yl)methyl]imidazolidine-2,4-dione and (±)-5-(3,4-difluorophenyl)-5-[(3-methyl-2-oxopyridin-1(2H)-yl)methyl]imidazolidine-2,4-dione measured in advance for a suitable amount were prepared, respectively. In each tube, solvent (Propylene glycol (PG) or butylene glycol (BG)) was added with various amounts, e.g. 10 times, 20 times or 100 times amount of the test compound, and stirred with a vortex mixer. With a table ultrasonic washer set at 37° C., ultrasonication treatment was given for 10 minutes; after warming for an hour in a thermostat chamber, each were kept standing for 24 hours at room temperature. The test solutions were observed by sight to evaluate the states in accordance with the determination criterion given below.
Determination criterion consisted of the following two categories:
“Soluble”: Test compound dissolved; no undissolved substances confirmed by visual observation.
“Insoluble”: Test compound remains undissolved; undissolved substances confirmed by visual observation.

Cc1cccn(CC2(c3ccc(F)c(F)c3)NC(=O)NC2=O)c1=O (racemic) [(±)-5-(3,4-difluorophenyl)-5-[(3-methyl-2-oxopyridin-1(2H)-yl)methyl]imidazolidine-2,4-dione]
solubility at 2 h [1]: 45 µg/mL (≈ 0.135 mM) | solubility at 24 h ([2]; BG, 20 times amount of the test compound, read-out: Solubility in butylene glycol (BG), 20 times amount): < 50000 µg/mL | solubility at 24 h ([2]; BG, 100 times amount of the test compound, read-out: Solubility in butylene glycol (BG), 100 times amount): > 10000 µg/mL | solubility at 24 h ([2]; PG, 10 times amount of the test compound, read-out: Solubility in propylene glycol (PG), 10 times amount): < 50000 µg/mL | solubility at 24 h ([2]; PG, 20 times amount of the test compound, read-out: Solubility in propylene glycol (PG), 20 times amount): < 50000 µg/mL | solubility at 24 h ([2]; PG, 100 times amount of the test compound, read-out: Solubility in propylene glycol (PG), 100 times amount): > 10000 µg/mL
